The text below walks through data of patent US9968582B2, “Use of a benzoate containing composition in urea cycle disorders and neurodegenerative disorders” (Rush University Medical Center, priority 2014, dated 2018).

One data set deals with TGF-β. The experiment in a line: TGF-β ELISA in serum of EAE mice. Format: in vivo. As to conditions: GTB from 8 dpt, sacrificed 16 dpt; FIG. 6. The source says: Production of TGF-β in culture supernatant was monitored by ELISA using assay kit from eBioscience (San Diego, Calif.).
Because TGF-β is known to protect mice from EAE, the inventor examined the level of TGF-β in serum of GTB-treated and untreated EAE mice by ELISA. EAE mice receiving GTB or vehicle from 8 dpt were sacrificed on 16 dpt followed by analysis of TGF-β in serum. The inventor observed marked decrease in TGF-β in the serum of EAE mice as compared to control mice (FIG. 6).

Data set [1] is described as follows: Observation of drug related side effects in mice. As to conditions: any of the mice used during the course of the study. The class given is in vivo.
In another data set the test system is spinal cord of EAE mice. Briefly: Luxol fast blue staining for myelin, spinal cord of EAE mice. Format: in vivo. To be noted: FIG. 5A-B. The procedure: Sections were stained with Luxol fast blue for myelin as described earlier. Slides were assessed in a blinded fashion for demyelination by three examiners using the following scale: 0, normal white matter; 1, rare foci; 2, a few areas of demyelination; and 3, large areas of demyelination. At least six serial sections of each spinal cord from each of five mice per group were scored and statistically analyzed by ANOVA.
Demyelination is the most important pathological feature in MS, which is also modeled in EAE animals. Therefore, the inventor examined whether GTB protected EAE mice from demyelination. The inventor stained spinal cord sections by luxol fast blue (LFB) for myelin and observed widespread demyelination zones in the white matter (FIG. 5A-B). […] In contrast, vehicle was unable to restore myelin level in spinal cord of EAE mice (FIG. 5A-B). To confirm this finding, the inventor monitored the expression of […] myelin genes, myelin basic protein (MBP) and proteolipid protein (PLP), and observed a marked loss of mRNA expression of these genes in the spinal cord of untreated EAE mice compared to control mice (FIG. 5C-E).

The next data set has as its system male C57/BL6 mice. The experiment in a line: Chronic EAE (MOG35-55), clinical symptoms. Format: in vivo. To be noted: chronic model, FIG. 1C. As to the method:
C57BL/6 mice were immunized with 100 μg of MOG35-55 as described above. Mice also received two doses of pertussis toxin (150 ng/mouse) on 0 and 2 dpi.
GTB was mixed in 0.5% methylcellulose (MC) and EAE mice were gavaged 100 μL GTB-mixed MC once daily using gavage needle. Therefore, control EAE mice received only MC as vehicle.
While female SJL/J mice are used to induce RR-EAE, chronic form of EAE is modeled in male C57/BL6 mice upon immunization with MOG35-55. Therefore, the inventor examined the efficacy of GTB in suppressing the disease process of chronic EAE.

The test system of the next data set is female SJL/J mice. Briefly: Adoptively-transferred RR-EAE, clinical symptoms. Format: in vivo. To be noted: for clinical symptoms (mean clinical score): FIG. 1A.
Data set [2] relates to dopamine (DA) in the striata. The experiment in a line: MPTP mouse model of PD, HPLC of striatal dopamine. The class given is in vivo, mice. As to conditions: FIG. 10. The procedure: (§1) Six- to eight-week old C57BL/6 mice were purchased from Harlan (Indianapolis, Ind.). For acute MPTP intoxication, mice received four intraperitoneal (i.p.) injections of MPTP-HCl (18 mg/kg of free base; Sigma Chemical Co., St. Louis, Mo.) in saline at 2-h intervals. Control animals received only saline.
(§2) GTB was mixed in 0.5% methylcellulose (MC) and from 3 h after the last injection of MPTP, mice were gavaged 100 μL GTB-mixed MC once daily using gavage needle. Therefore, control MPTP mice received only MC as vehicle.
Striatal level of dopamine was quantified in Complete Stand-Alone HPLC-ECD System EiCOMHTEC-500 (JM Science Inc., Grand Island, N.Y.). Briefly, mice were sacrificed by cervical dislocation after 7 days of MPTP intoxication and their striata were collected and immediately frozen in dry ice and stored at −80° C. until analysis. On the day of the analysis, tissues were sonicated in 0.2M perchloric acid containing isoproterenol and resulting homogenates were centrifuged at 20,000×g for 15 min at 4 C. After pH adjustment and filtration, 10 μl of supernatant was injected onto an Eicompak SC-3ODS column (Complete Stand-Alone HPLC-ECD System EiCOMHTEC-500 from JM Science Inc., Grand Island, N.Y.) and analyzed following the manufacturer's protocol.
Next, to determine whether GTB protects against biochemical deficits caused by MPTP, the inventor quantified levels of dopamine (DA) in the striata 7 days after the MPTP treatment. As evident from FIG. 10, MPTP intoxication led to about 75% decrease in striatal DA compared to striata of saline-injected control mice.

The test system of data set [3] is Tyrosine hydroxylase (TH). Briefly: MPTP mouse model of PD, Western blot of nigral TH. To be noted: FIG. 9A-B. The class given is in vivo, mice. The procedure:
as §1, §2
Immunoblot analysis for DJ-1 and TH was carried out. Briefly, cell homogenates were electrophoresed, proteins were transferred onto a nitrocellulose membrane, and bands were visualized with an Odyssey infrared scanner after immunolabeling with respective primary antibodies followed by infra-red fluorophore-tagged secondary antibody (Invitrogen).
Tyrosine hydroxylase (TH), the key enzyme responsible for the production of dopamine, is present in dopaminergic neurons. MPTP-intoxication led to approximately 60% loss of nigral TH (FIG. 9A-B) compared with saline-injected controls.

Data set [4] relates to Foxp3+CD4+ population of T cells. The experiment in a line: Flow cytometry of Tregs in splenocytes of EAE mice. Format: in vivo. To be noted: FIG. 7A-D. The procedure:
Two-color flow cytometry was performed as described previously. Briefly, 1×10^6 lymph node cells (LNC) or splenocytes suspended in flow staining buffer were incubated at 4° C. with appropriately diluted FITC-labeled Ab to CD4 for 30 min, washed, and re-suspended in fixation and permeabilization solution. Following incubation in dark for 30 min, cells were washed, blocked with test Fc block (anti-mouse CD16/32) in permeabilization buffer, and subsequently incubated with appropriately diluted PE-labeled Abs to Foxp3 at 4° C. in the dark. After incubation, the cell suspension was centrifuged, washed thrice, and re-suspended in flow staining buffer. The cells then were analyzed through FACS (BD Biosciences, San Jose, Calif.). Cells were gated based on morphological characteristics. Apoptotic and necrotic cells were not accepted for FACS analysis.
Since TGF-β is involved in the differentiation of non-Tregs into Tregs, the inventor monitored the status of Tregs in EAE mice. A major population of Tregs is characterized by a transcription factor FoxP3. During autoimmune insults, Tregs become both numerically and functionally defective. Therefore, as expected, the inventor observed significant reduction in Foxp3+CD4+ population of T cells in EAE splenocytes as evident from FACS dot plot (FIG. 7A-B). […]

Turning to `O=C(OCC(COC(=O)c1ccccc1)OC(=O)c1ccccc1)c1ccccc1` [GTB, glyceryl tribenzoate], in the data set with TGF-β, the TGF-β in serum result was “protected TGF-β”. Also, in data set [1], the “drug related side effect (e.g. hair loss, weight loss, untoward infection)” value is reported as “did not notice any drug related side effect”. For the same compound, the “myelin level in the spinal cord (LFB)” value with spinal cord of EAE mice is “remarkably restored myelin level”. In addition, the “clinical symptoms of EAE” value in the data set with male C57/BL6 mice is given as “strongly inhibited the clinical symptoms”. Besides, the “clinical symptoms (mean clinical score)” value in the data set with female SJL/J mice (GTB 25 mg/kg body wt/d by gavage once daily from 8 dpt) was “significantly inhibited clinical symptoms”; with female SJL/J mice (GTB 50 mg/kg body wt/d by gavage from 8 dpt, acute and chronic phases) it was “dramatic inhibition of clinical symptoms”; with female SJL/J mice (GTB 100 mg/kg body wt/d by gavage from 8 dpt), “less potent than either 50 mg/kg body wt/d”. Moreover, in the data set with female SJL/J mice (GTB treatment, TGF-β blocking experiment, FIG. 8), the “clinical symptoms of adoptively-transferred RR-EAE” value is recorded as “ameliorated clinical symptoms”. Besides, the “dose that significantly suppressed clinical symptoms of EAE” value in the data set on female SJL/J mice (dose-dependent study, oral GTB) was not below 25 mg/kg body wt/d. For the same compound, the “decrease in striatal dopamine” value in data set [2] (GTB 50 mg/kg body wt/d in MPTP-intoxicated mice, MPTP alone about 75% decrease) stood at 25%. Further, the “dopamine in the striatum” value in data set [2] (GTB in MPTP-intoxicated mice, 7 days after MPTP) is given as “dose-dependently protected dopamine”. Moreover, the entries for the “nigral TH” value in data set [3] (GTB 25 mg/kg body wt/d) and in data set [3] (oral GTB in MPTP-intoxicated mice) were “protection was evident” and “protected nigral TH in a dose-dependent manner”, respectively. Further, the “Foxp3+CD4+ population in splenocytes” value in data set [4] is “led to the increase in Foxp3+CD4+ population”.
